What was measured:
hcGAS [1] = target: T1, hcGAS (Homo sapiens, UniProt Q8N884); test: hcGAS LCMS assay (direct measurement of cGAMP production); format: biochemical; conditions: 0.5 nM hcGAS, 100 μM ATP, 100 μM GTP, 25 nM dsDNA, 4 h incubation
Method in brief: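 Direct LC/MS readout of cGAMP formed: 4-h enzyme–substrate incubation with compound, stopped by acetonitrile/water quench carrying isotope-labelled cGAMP (0.15 mM) as standard. Potency reported as IC50 ranges.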

hcGAS [2] = target: T1, hcGAS; test: hcGAS Kinase-Glo assay (ATP depletion); format: biochemical; conditions: 40 nM hcGAS, 100 μM ATP, 100 μM GTP, 25 nM dsDNA, 3 h incubation
Method in brief: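 Human cGAS activity measured indirectly as ATP depletion by Kinase-Glo luminescence, following the Lama et al. method with modified conditions. Output is IC50, binned into potency categories.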

T1 sequence (Q8N884 whole entry): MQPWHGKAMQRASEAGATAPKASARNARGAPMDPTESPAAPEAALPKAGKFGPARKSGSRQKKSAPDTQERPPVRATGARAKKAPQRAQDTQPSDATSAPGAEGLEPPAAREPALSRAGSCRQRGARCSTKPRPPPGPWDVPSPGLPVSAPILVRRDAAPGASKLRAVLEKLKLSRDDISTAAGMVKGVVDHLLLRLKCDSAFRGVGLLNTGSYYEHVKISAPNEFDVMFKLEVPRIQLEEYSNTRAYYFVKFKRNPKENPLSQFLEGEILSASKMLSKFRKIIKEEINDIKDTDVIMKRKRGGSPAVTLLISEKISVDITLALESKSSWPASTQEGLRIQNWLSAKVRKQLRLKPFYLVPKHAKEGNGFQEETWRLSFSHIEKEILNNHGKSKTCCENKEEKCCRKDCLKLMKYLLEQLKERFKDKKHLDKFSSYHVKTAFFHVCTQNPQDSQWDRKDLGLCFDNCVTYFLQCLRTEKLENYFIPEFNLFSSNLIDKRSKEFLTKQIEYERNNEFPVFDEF

## COCCNc1cc(C(=O)Nc2nnc(-c3sccc3Cl)s2)oc(=O)c1OC [Compound 146, N-[5-(3-chlorothiophen-2-yl)-1,3,4-thiadiazol-2-yl]-5-methoxy-4-[(2-methoxyethyl)amino]-6-oxopyran-2-carboxamide]
hcGAS [1]
  IC50: 5 to 20 nM
hcGAS [2]
  IC50: 10 to 30 nM

## COCCNc1cc(C(=O)Nc2nnc(-n3nccc3C)s2)oc(=O)c1OC [Compound 75, 3-methoxy-4-((2-methoxyethyl)amino)-N-(5-(5-methyl-1H-pyrazol-1-yl)-1,3,4-thiadiazol-2-yl)-2-oxo-2H-pyran-6-carboxamide]
hcGAS [1]
  IC50: 5 to 20 nM
hcGAS [2]
  IC50: 30 to 100 nM

## COc1c(NCC(C)(C)OC)cc(C(=O)Nc2nnc(-n3nccc3C)s2)oc1=O [Compound 120, 3-methoxy-4-((2-methoxy-2-methylpropyl)amino)-N-(5-(5-methyl-1H-pyrazol-1-yl)-1,3,4-thiadiazol-2-yl)-2-oxo-2H-pyran-6-carboxamide]
hcGAS [1]
  IC50: 5 to 20 nM
hcGAS [2]
  IC50: 10 to 30 nM

## COc1c(N2C[C@H](OC)[C@H](OC)C2)cc(C(=O)Nc2nnc(-n3nccc3C)s2)oc1=O [Compound 59, 4-((3S,4R)-3,4-dimethoxypyrrolidin-1-yl)-3-methoxy-N-R(5-(5-methyl-1H-pyrazol-1-yl)-1,3,4-thiadiazol-2-yl)-2-oxo-2H-pyran-6-carboxamide]
hcGAS [1]
  IC50: 5 to 20 nM
hcGAS [2]
  IC50: 10 to 30 nM

## COc1c(N2CCCC2)cc(C(=O)Nc2nnc(-n3nccc3C)s2)oc1=O [Compound 216, 3-methoxy-N-(5-(5-methyl-1H-pyrazol-1-yl)-1,3,4-thiadiazol-2-yl)-2-oxo-4-(pyrrolidin-1-yl)-2H-pyran-6-carboxamide]
hcGAS [1]
  IC50: 5 to 20 nM
hcGAS [2]
  IC50: 30 to 100 nM

## COc1c(N[C@H]2CCCC[C@H]2O)cc(C(=O)Nc2nnc(-n3nccc3C)s2)oc1=O (racemic) [Rac-189, 4-(((1S,2R)-2-hydroxycyclohexyl)amino)-3-methoxy-N-(5-(5-methyl-1H-pyrazol-1-yl)-1,3,4-thiadiazol-2-yl)-2-oxo-2H-pyran-6-carboxamide]
hcGAS [1]
  IC50: 5 to 20 nM
hcGAS [2]
  IC50: 10 to 30 nM

## COC[C@H](C)Nc1cc(C(=O)Nc2nnc(-n3nccc3C)s2)oc(=O)c1OC [Compound 64, (S)-3-methoxy-4-((1-methoxypropan-2-yl)amino)-N-(5-(5-methyl-1H-pyrazol-1-yl)-1,3,4-thiadiazol-2-yl)-2-oxo-2H-pyran-6-carboxamide]
hcGAS [1]
  IC50: 20 to 60 nM
hcGAS [2]
  IC50: 30 to 100 nM

## COc1c(N[C@H]2CC[C@@H](O)C2)cc(C(=O)Nc2nnc(-n3nccc3C)s2)oc1=O (racemic) [Rac-61, 4-(((1S,3R)-3-hydroxycyclopentyl)amino)-3-methoxy-N-(5-(5-methyl-1H-pyrazol-1-yl)-1,3,4-thiadiazol-2-yl)-2-oxo-2H-pyran-6-carboxamide]
hcGAS [1]
  IC50: 5 to 20 nM
hcGAS [2]
  IC50: 10 to 30 nM

## COc1c(N2CC[C@@H](S(C)(=O)=O)C2)cc(C(=O)Nc2nnc(-n3nccc3C)s2)oc1=O [Compound 8, (R)-3-methoxy-N-(5-(5-methyl-1H-pyrazol-1-yl)-1,3,4-thiadiazol-2-yl)-4-(3-(methylsulfonyl)pyrrolidin-1-yl)-2-oxo-2H-pyran-6-carboxamide]
hcGAS [1]
  IC50: 5 to 20 nM
hcGAS [2]
  IC50: 10 to 30 nM

## COc1c(NCCS(C)(=O)=O)cc(C(=O)Nc2nnc(-n3nccc3C)s2)oc1=O [Compound 183]
hcGAS [1]
  IC50: 5 to 20 nM
hcGAS [2]
  IC50: 30 to 100 nM

## COc1c(N[C@@H]2CCOC2)cc(C(=O)Nc2nnc(-n3nccc3C)s2)oc1=O [Compound 184, (R)-3-methoxy-N-(5-(5-methyl-1H-pyrazol-1-yl)-1,3,4-thiadiazol-2-yl)-2-oxo-4-((tetrahydrofuran-3-yl)amino)-2H-pyran-6-carboxamide]
hcGAS [1]
  IC50: 20 to 60 nM
hcGAS [2]
  IC50: 30 to 100 nM

## COc1c(NC23CC(C2)C3)cc(C(=O)Nc2nnc(-c3c(Cl)ccn3C)s2)oc1=O [Compound 41, 4-{bicyclo[1.1.1]pentan-1-ylamino}-N-[5-(3-chloro-1-methylpyrrol-2-yl)-1,3,4-thiadiazol-2-yl]-5-methoxy-6-oxopyran-2-carboxamide]
hcGAS [1]
  IC50: < 5 nM
hcGAS [2]
  IC50: < 10 nM

## COc1c(N2CC[C@H](O)C2)cc(C(=O)Nc2nnc(-n3nccc3C)s2)oc1=O [Compound 110, (S)-4-(3-hydroxypyrrolidin-1-yl)-3-methoxy-N-(5-(5-methyl-1H-pyrazol-1-yl)-1,3,4-thiadiazol-2-yl)-2-oxo-2H-pyran-6-carboxamide]
hcGAS [1]
  IC50: 5 to 20 nM
hcGAS [2]
  IC50: 10 to 30 nM

## COc1c(N[C@@H]2CC[C@@H]2O)cc(C(=O)Nc2nnc(-n3nccc3C)s2)oc1=O (racemic) [Rac-43, 4-(((1R,2S)-2-hydroxycyclobutyl)amino)-3-methoxy-N-(5-(5-methyl-1H-pyrazol-1-yl)-1,3,4-thiadiazol-2-yl)-2-oxo-2H-pyran-6-carboxamide]
hcGAS [1]
  IC50: 5 to 20 nM
hcGAS [2]
  IC50: 10 to 30 nM

## COc1c(N2C[C@H](OC)[C@@H](O)C2)cc(C(=O)Nc2nnc(-n3nccc3C)s2)oc1=O (racemic) [Rac-91, 4-((3S,4S)-3-hydroxy-4-methoxypyrrolidin-1-yl)-3-methoxy-N-(5-(5-methyl-1H-pyrazol-1-yl)-1,3,4-thiadiazol-2-yl)-2-oxo-2H-pyran-6-carboxamide]
hcGAS [1]
  IC50: 5 to 20 nM
hcGAS [2]
  IC50: < 10 nM

## COc1c(NC(C)C)cc(C(=O)Nc2nnc(-c3c(Cl)ccn3C)s2)oc1=O [Compound 131, N-(5-(3-chloro-1-methyl-1H-pyrrol-2-yl)-1,3,4-thiadiazol-2-yl)-4-(isopropylamino)-3-methoxy-2-oxo-2H-pyran-6-carboxamide]
hcGAS [1]
  IC50: 5 to 20 nM
hcGAS [2]
  IC50: 10 to 30 nM

## COc1c(N[C@H]2CCC[C@@H]2OC)cc(C(=O)Nc2nnc(-n3nccc3C)s2)oc1=O (racemic) [Rac-107, 3-methoxy-4-(((1S,2S)-2-methoxycyclopentyl)amino)-N-(5-(5-methyl-1H-pyrazol-1-yl)-1,3,4-thiadiazol-2-yl)-2-oxo-2H-pyran-6-carboxamide]
hcGAS [1]
  IC50: 5 to 20 nM
hcGAS [2]
  IC50: < 10 nM

## COCCNc1cc(C(=O)Nc2nnc(-c3c(Cl)ccn3C)s2)oc(=O)c1OC [Compound 127, N-(5-(3-chloro-1-methyl-1H-pyrrol-2-yl)-1,3,4-thiadiazol-2-yl)-3-methoxy-4-((2-methoxyethyl)amino)-2-oxo-2H-pyran-6-carboxamide]
hcGAS [1]
  IC50: < 5 nM
hcGAS [2]
  IC50: 10 to 30 nM

## COc1c(N[C@@H]2CC[C@H]2OC)cc(C(=O)Nc2nnc(-n3nccc3C)s2)oc1=O (racemic) [Rac-36, 3-methoxy-4-(((1R,2R)-2-methoxycyclobutyl)amino)-N-(5-(5-methyl-1H-pyrazol-1-yl)-1,3,4-thiadiazol-2-yl)-2-oxo-2H-pyran-6-carboxamide]
hcGAS [1]
  IC50: 5 to 20 nM
hcGAS [2]
  IC50: 10 to 30 nM

## COc1c(NCC(C)(C)O)cc(C(=O)Nc2nnc(-n3nccc3C)s2)oc1=O [Compound 33, 4-(2-hydroxy-2-methylpropylamino)-5-methoxy-N-(5-(5-methyl-1H-pyrazol-1-yl)-1,3,4-thiadiazol-2-yl)-6-oxo-6H-pyran-2-carboxamide]
hcGAS [1]
  IC50: 20 to 60 nM
hcGAS [2]
  IC50: 10 to 30 nM

## COc1c(NC[C@H](C)OC)cc(C(=O)Nc2nnc(-n3nccc3C)s2)oc1=O [Compound 187, (S)-3-methoxy-4-((2-methoxypropyl)amino)-N-(5-(5-methyl-1H-pyrazol-1-yl)-1,3,4-thiadiazol-2-yl)-2-oxo-2H-pyran-6-carboxamide]
hcGAS [1]
  IC50: 5 to 20 nM
hcGAS [2]
  IC50: 10 to 30 nM

Reference: patent US20240270740A1, “INHIBITORS OF CYCLIC GMP-AMP SYNTHASE AND USES THEREOF” (Ventus Therapeutics U.S., Inc., priority 2022, published 2024)
